In article PMC4856416, “ATP half‐sites in RadA and RAD51 recombinases bind nucleotides” (FEBS Open Bio, 2016) one finds Kd data, which are given here for five compounds.

SMILES strings stand for the structures.

One assay has as its target T1, RAD51–BRC4 (Homo sapiens, UniProt Q06609).
T1 construct: monomerised fusion: BRC repeat 4 of BRCA2 covalently linked to the N terminus of the human RAD51 ATPase domain; with Breast cancer type 2 susceptibility protein (BRC repeat 4)
Kind of assay: ITC. It is filed as binding. The following applies: read-out: RAD51-BRC4 / K D/μM.

For the next assay, the target named is T2, HumRadA2 (Pyrococcus furiosus, UniProt O74036, I169M/Y201A/V202Y/E219S/D220A/K221M/DEL288-301).
T2 construct: gene radA; humanised monomeric C-terminal ATPase domain of RadA; six FxxA-site mutations; E. coli BL21(DE3)
Nature of the assay: ITC. Format: binding. The note with it: 25 °C, 50 mM Tris pH 7.5, 100 mM NaCl, 5 mM MgCl2; read-out: HumRadA2 / K D/μM.

The nature of another assay: ITC. Format: binding, Pyrococcus furiosus. The note with it: 25 °C, 50 mM Tris pH 7.5, 100 mM NaCl, 5 mM MgCl2; read-out: RAD51-BRC4 / K D/μM.

T1 sequence (Q06609 97-339 limits assumed): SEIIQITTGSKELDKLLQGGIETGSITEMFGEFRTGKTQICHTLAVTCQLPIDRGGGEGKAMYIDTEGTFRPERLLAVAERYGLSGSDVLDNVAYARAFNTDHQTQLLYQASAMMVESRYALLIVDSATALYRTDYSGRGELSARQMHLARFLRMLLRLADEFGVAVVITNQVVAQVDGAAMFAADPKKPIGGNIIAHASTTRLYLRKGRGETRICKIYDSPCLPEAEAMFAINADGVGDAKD
T1 sequence (P51587 1517-1551 partner limits assumed): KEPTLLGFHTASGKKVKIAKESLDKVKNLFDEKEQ

Turning to `Nc1ncnc2c1ncn2[C@@H]1O[C@H](COP(=O)(O)OP(=O)(O)O)[C@@H](O)[C@H]1O` [ADP], the Kd at RAD51–BRC4 worked out at 1 µM; at HumRadA2 it was 0.54 µM.

For `Nc1ncnc2c1ncn2[C@@H]1O[C@H](COP(=O)(O)OP(=O)(O)NP(=O)(O)O)[C@@H](O)[C@H]1O` [AMPPNP], the Kd on RAD51–BRC4 came to 12 µM; at HumRadA2, 20 µM.

As to `Nc1ncnc2c1ncn2[C@@H]1O[C@H](COP(=O)(O)OP(=O)(O)OP(=O)(O)O)[C@@H](O)[C@H]1O` [ATP], the Kd at RAD51–BRC4 and in “ITC” was 1 µM each time.

On to `Nc1nc2c(ncn2[C@@H]2O[C@H](COP(=O)(O)OP(=O)(O)O)[C@@H](O)[C@H]2O)c(=O)[nH]1` [GDP], for which the Kd came to 2.5 µM at RAD51–BRC4 and 0.21 µM on HumRadA2.

On to `Nc1nc2c(ncn2[C@@H]2O[C@H](COP(=O)(O)OP(=O)(O)OP(=O)(O)O)[C@@H](O)[C@H]2O)c(=O)[nH]1` [GTP], for which the values for the Kd on RAD51–BRC4 and at HumRadA2 were 5 µM and 0.64 µM, respectively.
